For the first data set, the target named is T1, small-conductance Ca2+-activated K+ channels (SK channels, subtype 2) (Homo sapiens, UniProt Q9H2S1).
T1 construct: expressed in transfected cells; host or cells: HEK293
The experiment in a line: whole-cell patch-clamp of ionic current through SK2 channels in HEK293 cells (SC100). Conditions: potency against SK2 channels. The class given is cell-based. Put shortly:
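SC100, the concentration doubling basal current (a 100% increase), was taken from SK2 currents recorded by whole-cell patch-clamp in SK2-expressing HEK293 cells.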
In the case of `Cc1ccn(-c2nc(NC3CCC(F)(F)CC3)cc(N3CCOCC3)n2)n1` [Compound 359, N-(4,4-difluorocyclohexyl)-2-(3-methyl-1H-pyrazol-1-yl)-6-morpholinopyrimidin-4-amine], the “Measured SK2 SC100” value was determined as 0.5 µM.

Staying with this data set, now noted: whole-cell patch-clamp, HEK293 cells expressing SK2 channels; concentration that increases the basal current by 100%.
With `CC(=O)N1CCN(c2cc(-n3nccc3C3CC3)nc(NC3CCC(F)(F)CC3)n2)CC1` [NSSy6957, 1-(4-(6-(5-cyclopropyl-1H-pyrazol-1-yl)-2-((4,4-difluorocyclohexyl)amino)pyrimidin-4-yl)piperazin-1-yl)ethan-1-one], the “SC100 (μM)” value is “+ (+ means >1 uM)”.

Turning to `Cc1ccn(-c2cc(N3CCOC(C(C)(C)O)C3)nc(NC3CCC(F)(F)CC3)n2)n1` (centres unmarked) [NSSy6958], the “SC100 (μM)” value was “++ (++ means 200 nM-1000 nM)”.

As to `CC(=O)N1CCN(c2cc(-n3ccc(O)n3)nc(NC3CCC(F)(F)CC3)n2)CC1` [NSSy6972, 1-(4-(2-((4,4-difluorocyclohexyl)amino)-6-(3-hydroxy-1H-pyrazol-1-yl)pyrimidin-4-yl)piperazin-1-yl) ethan-1-one], the “SC100 (μM)” value is recorded as “+ (+ means >1 uM)”.

Take `COC(=O)N1CCC(c2cc(-n3ccc(C)n3)nc(NC3CCC(F)(F)CC3)n2)CC1` [NSSy6981, methyl 4-(2-((4,4-difluorocyclohexyl)amino)-6-(3-methyl-1H-pyrazol-1-yl)pyrimidin-4-yl)piperidine-1-carboxylate]: the “SC100 (μM)” value was “+++ (+++ means <200 nM)”.

In the case of `COC(=O)N1CCC(c2cc(NC3CCC(F)(F)CC3)nc(-n3ccc(C)n3)n2)CC1` [NSSy6982], the “SC100 (μM)” value is listed as “+++ (+++ means <200 nM)”.

For the compound `Cc1ccn(-c2cc(N3CCOC(CO)C3)nc(NC3CCC(F)(F)CC3)n2)n1` (centres unmarked) [NSSy6986, (4-(2-((4,4-difluorocyclohexyl)amino)-6-(3-methyl-1H-pyrazol-1-yl)pyrimidin-4-yl)morpholin-2-yl)methanol], the “SC100 (μM)” value is “++ (++ means 200 nM-1000 nM)”.

As to `CC(=O)N1CCN(c2cc(-c3cccc(C)n3)nc(NC3CCC(F)(F)CC3)n2)CC1` [NSSy6989, 1-(4-(2-((4,4-difluorocyclohexyl)amino)-6-(6-methylpyridin-2-yl)pyrimidin-4-yl)piperazin-1-yl)ethan-1-one], the “SC100 (μM)” value was “+ (+ means >1 uM)”.

Take `COc1ccn(-c2nc(NC3CCC(F)(F)CC3)cc(N3CCOCC3)n2)n1` [NSSy6993]: the “SC100 (μM)” value was “++ (++ means 200 nM-1000 nM)”.

As for `COc1ccn(-c2nc(C)cc(NC3CCC(F)(F)CC3)n2)n1` [NSSy6994, N-(4,4-difluorocyclohexyl)-2-(3-methoxy-1H-pyrazol-1-yl)-6-methylpyrimidin-4-amine], the “SC100 (μM)” value was “++ (++ means 200 nM-1000 nM)”.

Take `Cc1nn(-c2nc(NC3CCC(F)(F)CC3)cc(N3CCOCC3)n2)c(C)c1F` [NSSy7011]: the “SC100 (μM)” value is reported as “++ (++ means 200 nM-1000 nM)”.

As to `Cc1cc(NC2CCC(F)(F)CC2)nc(-n2ccc(C3(C)CC3)n2)n1` [NSSy7012], the “SC100 (μM)” value is “+ (+ means >1 uM)”.

`FC1(F)CCC(Nc2cc(N3CCOCC3)nc(-n3ccc(Br)n3)n2)CC1` [NSSy7021]: the “SC100 (μM)” value was “+++ (+++ means <200 nM)”.

For the compound `Cc1cc(NC2CCC(F)(F)CC2)nc(-n2ccc(O)n2)n1` [NSSy7027, 1-(4-((4,4-difluorocyclohexyl)amino)-6-methylpyrimidin-2-yl)-1H-pyrazol-3-ol], the “SC100 (μM)” value is on record as “+ (+ means >1 uM)”.

Consider `Cc1cc(NC2CCC(F)(F)CC2)nc(-n2ccc(-c3ccccc3)n2)n1` [NSSy7028], for which the “SC100 (μM)” value is “+ (+ means >1 uM)”.

Regarding `COc1cnc(-n2nc(C)cc2C)nc1NC1CCC(F)(F)CC1` [NSSy7031], the “SC100 (μM)” value is “+ (+ means >1 uM)”.

Take `FC1(F)CCC(Nc2cc(N3CCOCC3)nc(-n3ccc(-c4ccccc4)n3)n2)CC1` [NSSy7034]: the “SC100 (μM)” value is listed as “+ (+ means >1 uM)”.

Turning to `COc1cnc(-n2nc(C)c(F)c2C)nc1NC1CCC(F)(F)CC1` [NSSy7042], the “SC100 (μM)” value is given as “+ (+ means >1 uM)”.

As for `Cc1nc(NC2CCC(F)(F)CC2)nc(-n2ccc(C3CC3)n2)n1` [NSSy7043, 4-(3-cyclopropyl-1H-pyrazol-1-yl)-N-(4,4-difluorocyclohexyl)-6-methyl-1,3,5-triazin-2-amine], the “SC100 (μM)” value was “+ (+ means >1 uM)”.

Turning to `Cc1cc(C)n(-c2cc(C(O)Cc3cnn(C)n3)cc(NC3CCC(F)(F)CC3)n2)n1` (centres unmarked) [NSSy7053, 1-(2-((4,4-difluorocyclohexyl)amino)-6-(3,5-dimethyl-1H-pyrazol-1-yl)pyridin-4-yl)-2-(2-methyl-2H-1,2,3-triazol-4-yl) ethan-1-ol], the “SC100 (μM)” value is listed as “++ (++ means 200 nM-1000 nM)”.

In the case of `COc1cnc(-n2ccc(C)n2)nc1NC1CCC(F)(F)CC1` [NSSy7055], the “SC100 (μM)” value is reported as “+ (+ means >1 uM)”.

Turning to `Cc1cc(NC2CCC(F)(F)CC2)nc(-n2ccc(OC(F)F)n2)n1` [NSSy7059, N-(4,4-difluorocyclohexyl)-2-(3(difluoromethoxy)-1H-pyrazol-1-yl)-6-methylpyrimidin-4-amine], the “SC100 (μM)” value is “++ (++ means 200 nM-1000 nM)”.

In the case of `COc1cc(NC2CCC(F)(F)CC2)nc(-n2nc(C)c(F)c2C)n1` [NSSy7062], the “SC100 (μM)” value is “++ (++ means 200 nM-1000 nM)”.

For `COc1cnc(-n2ccc(C3CC3)n2)nc1NC1CCC(F)(F)CC1` [NSSy7063], the “SC100 (μM)” value is recorded as “+ (+ means >1 uM)”.

As for `Cc1ccn(-c2cc(C(O)Cc3cnn(C)n3)cc(NC3CCC(F)(F)CC3)n2)n1` (centres unmarked) [NSSy7064], the “SC100 (μM)” value is listed as “++ (++ means 200 nM-1000 nM)”.

On to `Cc1ccn(-c2cc(C(O)Cc3cnnn3C)cc(NC3CCC(F)(F)CC3)n2)n1` (centres unmarked) [NSSy7065, 1-(2-((4,4-difluorocyclohexyl)amino)-6-(3-methyl-1H-pyrazol-1-yl)pyridin-4-yl)-2-(1-methyl-1H-1,2,3-triazol-5-yl) ethan-1-ol], for which the “SC100 (μM)” value was “++ (++ means 200 nM-1000 nM)”.

For the compound `Cc1ccn(-c2cc(C(O)Cc3cn(C)nn3)cc(NC3CCC(F)(F)CC3)n2)n1` (centres unmarked) [NSSy7079, 1-(2-((4,4-difluorocyclohexyl)amino)-6-(3-methyl-1H-pyrazol-1-yl)pyridin-4-yl)-2-(1-methyl-1H-1,2,3-triazol-4-yl)ethan-1-ol], the “SC100 (μM)” value is listed as “++ (++ means 200 nM-1000 nM)”.

On to `Oc1ccn(-c2nc(NC3CCC(F)(F)CC3)cc(N3CCOCC3)n2)n1` [NSSy7087, 1-(4-((4,4-difluorocyclohexyl)amino)-6-morpholinopyrimidin-2-yl)-1H-pyrazol-3-ol], for which the “SC100 (μM)” value is “+ (+ means >1 uM)”.

Test system in the next data set: not listed separately
The experiment in a line: brain concentration by mass spectrometry from brains harvested after tremor recording; free brain concentration and % SK2 SC100. The class given is in vivo, Male Sprague Dawley rats. Conditions: male, Sprague Dawley, rat, oral, 30 mg/Kg, CFB=CMB×BFF, read-out: Calculated Free Brain Concentration. The source says:
The amount of free compound is then expressed in terms of its potency against the SK2 channel as follows: % SK2 SC100=CFB/SK2 SC100×100, where SK2 SC100 (Table 3, “SK2 SC100”) is the measured value of potency of the compound against SK2 channels and % SK2 SC100 (Table 3, “% SK2 SC100”) is the free brain concentration (CFB) normalized to SK2 SC100. Thus the % SK2 SC100 gives a measure of the degree to which each of the compounds is modulating SK2 channels regardless of differences in potency or exposure. Values are given in […]
Regarding `Cc1ccn(-c2nc(NC3CCC(F)(F)CC3)cc(N3CCOCC3)n2)n1` [Compound 359, N-(4,4-difluorocyclohexyl)-2-(3-methyl-1H-pyrazol-1-yl)-6-morpholinopyrimidin-4-amine], the concentration at 90 min was 80 nM.

The data set is the same for the next values; noted with them: male, Sprague Dawley, rat, oral, 30 mg/Kg, brains harvested immediately following tremor recording, mass spectrometry, at minimally efficacious dose, read-out: Measured Brain Concentration.
As to `Cc1ccn(-c2nc(NC3CCC(F)(F)CC3)cc(N3CCOCC3)n2)n1` [Compound 359, N-(4,4-difluorocyclohexyl)-2-(3-methyl-1H-pyrazol-1-yl)-6-morpholinopyrimidin-4-amine], the concentration at 90 min was 1300 nM.

The next data set concerns harmaline induced tremor. The data set can be described thus: harmaline induced tremor in rats. The class given is in vivo, Male Sprague Dawley rats. Particulars: 30 mg/Kg oral, 30 minutes prior to harmaline injection; FIG. 1. The procedure: Immediately following harmaline injection, animals were placed in the tremor quantification apparatus and tremor events were quantified for 60 minutes. A tremor event signal was generated when a small metal transmitter band fitted to the right forepaw of the animal moved within the electromagnetic field generated by a loop antenna within the testing apparatus. Outputs from the amplifier were digitized at a sampling rate of 1,000 Hz and the signal was processed and analyzed using LabView software (National Instruments). To minimize signal from ambulatory and grooming behavior, the signal was filtered with a 128-ms nonweigthed moving average filter, and events with amplitudes >0.5 V and lasting >300 ms in duration were counted as a tremor event. Data were analyzed in one-minute bins over the course of the test and presented as the sum of tremor events over the entire 60 minute test.
With `Cc1ccn(-c2nc(NC3CCC(F)(F)CC3)cc(N3CCOCC3)n2)n1` [Compound 359, N-(4,4-difluorocyclohexyl)-2-(3-methyl-1H-pyrazol-1-yl)-6-morpholinopyrimidin-4-amine], the “inhibition of tremors (sum of tremor events over 60 minutes)” value is listed as “significant inhibition of tremors”.

Staying with this data set, now noted: oral administration 30 minutes prior to harmaline injection; rats.
Take `Cc1ccn(-c2nc(NC3CCC(F)(F)CC3)cc(N3CCOCC3)n2)n1` [Compound 359, N-(4,4-difluorocyclohexyl)-2-(3-methyl-1H-pyrazol-1-yl)-6-morpholinopyrimidin-4-amine]: the “Minimally Efficacious Dose” value came to 30 mg/kg.

(Values after patent US10774064B2 (Cadent Therapeutics, Inc., priority 2016, dated 2020).)
